# Test results taken from patent US7115590B1 (University College Cardiff Consultants Limited, priority 1999, dated 2006).
# Like-named read-outs stand apart in the source and are kept apart here.
# Experiments:
# Hepatitis B Virus = experiment: Anti-Hepatitis B Virus activity; assay type: cell-based
# Description: Compounds were tested for anti-Hepatitis B Virus activity according to the method described by Jansen, R. et al., Antimicrobial Agents and Chemotherapy, Vol. 37, No. 3, pp. 441–447, 1993, and results are shown in the table below.
# [1] = Acid stability, acid-mediated hydrolytic decomposition simulating stomach conditions (HPLC); assay type: physicochemical; details: dilute hydrochloric acid pH 1, 37° C., initial 0.3 mg/ml
# Description: Compounds according to the invention were tested for their stability towards acid-mediated hydrolytic decomposition employing a test designed to simulate stomach conditions. Each compound was incubated at an initial concentration of 0.3 mg/ml in dilute hydrochloric acid at pH 1 at 37° C. HPLC was run immediately for t=0 and at intervals up to approximately 24 hours.
# [2] = assay type: in vitro ADME; details: normal heparized human plasma, 37° C.
# Description: Each compound was incubated in normal heparized human plasma at 37° C. At selected time points duplicate samples were removed and deproteinated by acetonitrile extraction. Drug concentrations were then determined by LC/MS/MS analysis using standard methods.
Compound,IC50 (Hepatitis B Virus; Hepatitis B virus; read-out: IC50 (mM) vs. HBV) [nM],Selectivity Index (Hepatitis B Virus; vs. HBV),melting point [°C],"IC50 (Hepatitis B Virus; Hepatitis B virus, read-out: IC50 (mM) vs. HBV) [nM]","half-life, acid stability [1] [h]",Half-life [2] [h]
"Nc1ncnc2c1ncn2[C@@H]1C=C[C@H](CO)C1 (relative stereo) [Example 1, (1R,cis)-4-(6-Amino-9H-purin-9-yl)-2-cyclopentene-1-methanol]",980,>200,195 to 200,–,–,–
COC(=O)C(C)(C)NP(=O)(OC[C@H]1C=C[C@@H](n2cnc3c(N)ncnc32)C1)Oc1ccccc1 (stereo partly drawn) [Example 9],–,5000,–,2,–,–
CCOC(=O)[C@H](Cc1ccccc1)NP(=O)(OC[C@H]1C=C[C@@H](n2cnc3c(N)ncnc32)C1)Oc1ccccc1 (relative stereo) [Example 7],–,5000,–,–,76,53
Nc1ncnc2c1ncn2[C@@H]1C=C[C@H](COP(=O)([O-])N[C@@H](Cc2ccccc2)C(=O)[O-])C1.[Na+].[Na+] (relative stereo) [Example 8],–,>1800,–,–,–,–
